Some targets named below: ACVR1B (Homo sapiens, UniProt P36896); ACVR2A (Homo sapiens, UniProt P27037); CAMKK1 (Homo sapiens, UniProt Q8N5S9); DAPK3 (Homo sapiens, UniProt O43293); EPHA1 (Homo sapiens, UniProt P21709); EPHB4 (Homo sapiens, UniProt P54760); FGFR3(G697C) (Homo sapiens, UniProt P22607, G697C); GRK1 (Homo sapiens, UniProt Q15835); KIT (Homo sapiens, UniProt P10721); LATS2 (Homo sapiens, UniProt Q9NRM7); MAP3K4 (Homo sapiens, UniProt Q9Y6R4); MYLK (Homo sapiens, UniProt Q15746); TAOK3 (Homo sapiens, UniProt Q9H2K8); TNK2 (Homo sapiens, UniProt Q07912).

Test in all cases: biochemical
What all share (design): KINOMEscan active-site competition binding, percent of control (100 = no competition)
Conditions in all cases: competition binding, percent control

Assay [1] concerns the target T1, ABL1(H396P)-phosphorylated (Homo sapiens, UniProt P00519, H396P).
T1 construct: phosphorylated

The target of a further assay is T2, FAK (Homo sapiens, UniProt Q05397).
T2 construct: gene PTK2

For the next assay, the target named is T3, ICK (Homo sapiens, UniProt Q9UPZ9).
T3 construct: gene CILK1

The target in a further assay is T4, MLK1 (Homo sapiens, UniProt P80192).
T4 construct: gene MAP3K9

Another assay addresses T5, MRCKB (Homo sapiens, UniProt Q9Y5S2).
T5 construct: gene CDC42BPB

Another assay deals with T6, PKAC-beta (Homo sapiens, UniProt P22694).
T6 construct: gene PRKACB

In assay [2] the target is T7, RSK2(Kin.Dom.1-N-terminal) (Homo sapiens, UniProt P51812).
T7 construct: gene RPS6KA3; Kin.Dom.1-N-terminal

In the next assay the target is T8, YANK3 (Homo sapiens, UniProt Q86UX6).
T8 construct: gene STK32C

The structures appear in SMILES notation.

T2 sequence (Q05397 whole entry): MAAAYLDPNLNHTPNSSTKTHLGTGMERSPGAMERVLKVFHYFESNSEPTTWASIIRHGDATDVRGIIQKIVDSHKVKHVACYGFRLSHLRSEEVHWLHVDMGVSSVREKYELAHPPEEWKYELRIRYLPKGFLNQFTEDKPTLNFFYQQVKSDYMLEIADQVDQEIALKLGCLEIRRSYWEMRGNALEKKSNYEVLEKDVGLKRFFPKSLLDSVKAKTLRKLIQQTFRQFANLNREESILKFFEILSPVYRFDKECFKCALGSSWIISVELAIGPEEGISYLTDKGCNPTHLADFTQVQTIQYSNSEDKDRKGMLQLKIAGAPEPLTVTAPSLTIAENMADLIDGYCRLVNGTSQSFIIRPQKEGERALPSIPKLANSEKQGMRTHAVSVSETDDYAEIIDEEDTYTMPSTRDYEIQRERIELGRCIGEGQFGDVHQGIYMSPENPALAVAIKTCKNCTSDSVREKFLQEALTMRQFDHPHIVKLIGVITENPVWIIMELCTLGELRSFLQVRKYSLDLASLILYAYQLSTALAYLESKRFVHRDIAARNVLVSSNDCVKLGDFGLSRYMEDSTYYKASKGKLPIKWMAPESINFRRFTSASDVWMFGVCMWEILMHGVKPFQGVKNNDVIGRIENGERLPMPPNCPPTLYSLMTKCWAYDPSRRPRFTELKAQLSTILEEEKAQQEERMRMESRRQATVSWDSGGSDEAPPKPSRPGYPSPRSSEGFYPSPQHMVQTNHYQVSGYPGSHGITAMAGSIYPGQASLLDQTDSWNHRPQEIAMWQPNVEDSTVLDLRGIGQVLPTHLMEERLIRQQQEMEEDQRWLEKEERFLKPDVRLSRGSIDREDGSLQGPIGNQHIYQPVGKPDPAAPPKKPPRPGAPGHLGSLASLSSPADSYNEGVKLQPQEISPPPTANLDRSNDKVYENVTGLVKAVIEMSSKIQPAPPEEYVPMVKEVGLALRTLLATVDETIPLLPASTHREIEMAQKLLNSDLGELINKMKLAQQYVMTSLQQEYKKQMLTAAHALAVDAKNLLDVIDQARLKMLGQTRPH
Sequence of GRK1 (Q15835 whole entry): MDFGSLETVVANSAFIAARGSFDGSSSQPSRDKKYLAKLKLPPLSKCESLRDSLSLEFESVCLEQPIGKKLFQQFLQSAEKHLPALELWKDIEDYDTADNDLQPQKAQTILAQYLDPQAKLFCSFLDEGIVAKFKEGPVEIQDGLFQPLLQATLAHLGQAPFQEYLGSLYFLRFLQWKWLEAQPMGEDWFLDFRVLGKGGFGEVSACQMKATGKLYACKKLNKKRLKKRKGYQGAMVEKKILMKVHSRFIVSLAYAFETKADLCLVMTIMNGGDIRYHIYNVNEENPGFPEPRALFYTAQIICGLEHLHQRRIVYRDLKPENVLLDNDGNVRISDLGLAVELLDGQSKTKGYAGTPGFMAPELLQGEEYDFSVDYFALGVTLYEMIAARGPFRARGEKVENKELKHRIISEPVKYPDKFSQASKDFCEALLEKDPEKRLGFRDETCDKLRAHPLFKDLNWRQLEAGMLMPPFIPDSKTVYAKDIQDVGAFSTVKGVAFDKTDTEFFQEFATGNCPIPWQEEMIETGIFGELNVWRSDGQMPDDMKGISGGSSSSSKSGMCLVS
Sequence of FGFR3(G697C) (P22607 whole entry G697C): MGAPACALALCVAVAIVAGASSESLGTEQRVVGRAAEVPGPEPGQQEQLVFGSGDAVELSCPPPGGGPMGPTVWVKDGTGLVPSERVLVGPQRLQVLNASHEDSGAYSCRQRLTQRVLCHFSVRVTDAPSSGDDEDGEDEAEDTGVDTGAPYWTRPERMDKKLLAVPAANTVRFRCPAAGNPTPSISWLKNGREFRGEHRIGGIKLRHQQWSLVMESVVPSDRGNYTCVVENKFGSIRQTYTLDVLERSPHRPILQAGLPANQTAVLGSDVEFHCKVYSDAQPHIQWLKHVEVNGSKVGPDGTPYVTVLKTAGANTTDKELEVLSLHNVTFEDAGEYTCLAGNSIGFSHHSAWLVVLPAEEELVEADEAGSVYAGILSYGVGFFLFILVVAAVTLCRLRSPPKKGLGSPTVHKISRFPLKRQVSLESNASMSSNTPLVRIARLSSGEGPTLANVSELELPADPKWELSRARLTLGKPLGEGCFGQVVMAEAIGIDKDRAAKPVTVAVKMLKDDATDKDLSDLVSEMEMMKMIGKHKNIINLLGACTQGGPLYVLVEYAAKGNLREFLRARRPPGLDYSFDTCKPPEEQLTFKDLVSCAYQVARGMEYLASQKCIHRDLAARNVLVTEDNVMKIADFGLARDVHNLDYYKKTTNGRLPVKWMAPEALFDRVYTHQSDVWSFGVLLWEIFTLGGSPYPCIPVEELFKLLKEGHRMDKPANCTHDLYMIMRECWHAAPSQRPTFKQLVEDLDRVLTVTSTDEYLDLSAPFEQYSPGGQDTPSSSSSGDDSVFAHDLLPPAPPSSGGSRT
Sequence of TAOK3 (Q9H2K8 whole entry): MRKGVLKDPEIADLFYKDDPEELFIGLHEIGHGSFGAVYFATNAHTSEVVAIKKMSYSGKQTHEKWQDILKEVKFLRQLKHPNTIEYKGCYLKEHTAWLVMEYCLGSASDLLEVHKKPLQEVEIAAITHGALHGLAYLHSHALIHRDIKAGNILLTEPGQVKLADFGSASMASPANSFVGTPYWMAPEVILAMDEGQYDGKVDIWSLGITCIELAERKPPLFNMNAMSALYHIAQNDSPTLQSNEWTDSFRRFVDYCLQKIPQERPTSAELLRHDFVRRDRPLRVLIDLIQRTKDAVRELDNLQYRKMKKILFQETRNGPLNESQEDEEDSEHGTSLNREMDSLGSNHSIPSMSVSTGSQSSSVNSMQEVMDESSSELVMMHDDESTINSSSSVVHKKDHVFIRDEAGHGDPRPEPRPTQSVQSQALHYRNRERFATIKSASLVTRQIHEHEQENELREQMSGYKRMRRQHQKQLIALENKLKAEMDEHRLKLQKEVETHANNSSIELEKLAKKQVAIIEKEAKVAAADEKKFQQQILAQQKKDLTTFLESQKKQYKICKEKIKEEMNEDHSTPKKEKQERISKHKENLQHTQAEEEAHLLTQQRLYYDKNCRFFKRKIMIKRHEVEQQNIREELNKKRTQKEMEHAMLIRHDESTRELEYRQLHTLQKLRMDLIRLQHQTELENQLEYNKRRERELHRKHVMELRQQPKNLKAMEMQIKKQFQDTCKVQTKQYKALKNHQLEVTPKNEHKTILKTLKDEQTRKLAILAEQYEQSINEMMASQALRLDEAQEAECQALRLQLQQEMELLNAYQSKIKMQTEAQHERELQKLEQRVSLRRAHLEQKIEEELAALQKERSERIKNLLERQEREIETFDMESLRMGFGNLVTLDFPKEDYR
T3 sequence (Q9UPZ9 whole entry): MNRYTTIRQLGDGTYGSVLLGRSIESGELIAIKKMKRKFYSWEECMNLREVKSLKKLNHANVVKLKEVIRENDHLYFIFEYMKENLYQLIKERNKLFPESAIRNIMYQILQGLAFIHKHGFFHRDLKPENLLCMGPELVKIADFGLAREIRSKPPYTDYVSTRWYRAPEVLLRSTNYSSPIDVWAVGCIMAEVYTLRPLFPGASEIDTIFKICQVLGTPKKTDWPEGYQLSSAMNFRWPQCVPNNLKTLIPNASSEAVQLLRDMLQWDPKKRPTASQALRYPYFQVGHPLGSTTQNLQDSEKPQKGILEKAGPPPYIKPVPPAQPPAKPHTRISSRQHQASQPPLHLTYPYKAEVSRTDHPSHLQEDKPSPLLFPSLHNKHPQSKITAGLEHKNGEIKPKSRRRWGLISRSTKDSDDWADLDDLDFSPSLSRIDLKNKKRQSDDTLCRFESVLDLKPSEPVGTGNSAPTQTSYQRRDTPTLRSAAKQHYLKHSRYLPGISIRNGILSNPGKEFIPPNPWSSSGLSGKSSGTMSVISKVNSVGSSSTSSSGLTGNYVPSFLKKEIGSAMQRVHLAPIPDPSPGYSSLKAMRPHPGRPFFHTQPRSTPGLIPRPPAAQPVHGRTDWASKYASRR
Sequence of TNK2 (Q07912 whole entry): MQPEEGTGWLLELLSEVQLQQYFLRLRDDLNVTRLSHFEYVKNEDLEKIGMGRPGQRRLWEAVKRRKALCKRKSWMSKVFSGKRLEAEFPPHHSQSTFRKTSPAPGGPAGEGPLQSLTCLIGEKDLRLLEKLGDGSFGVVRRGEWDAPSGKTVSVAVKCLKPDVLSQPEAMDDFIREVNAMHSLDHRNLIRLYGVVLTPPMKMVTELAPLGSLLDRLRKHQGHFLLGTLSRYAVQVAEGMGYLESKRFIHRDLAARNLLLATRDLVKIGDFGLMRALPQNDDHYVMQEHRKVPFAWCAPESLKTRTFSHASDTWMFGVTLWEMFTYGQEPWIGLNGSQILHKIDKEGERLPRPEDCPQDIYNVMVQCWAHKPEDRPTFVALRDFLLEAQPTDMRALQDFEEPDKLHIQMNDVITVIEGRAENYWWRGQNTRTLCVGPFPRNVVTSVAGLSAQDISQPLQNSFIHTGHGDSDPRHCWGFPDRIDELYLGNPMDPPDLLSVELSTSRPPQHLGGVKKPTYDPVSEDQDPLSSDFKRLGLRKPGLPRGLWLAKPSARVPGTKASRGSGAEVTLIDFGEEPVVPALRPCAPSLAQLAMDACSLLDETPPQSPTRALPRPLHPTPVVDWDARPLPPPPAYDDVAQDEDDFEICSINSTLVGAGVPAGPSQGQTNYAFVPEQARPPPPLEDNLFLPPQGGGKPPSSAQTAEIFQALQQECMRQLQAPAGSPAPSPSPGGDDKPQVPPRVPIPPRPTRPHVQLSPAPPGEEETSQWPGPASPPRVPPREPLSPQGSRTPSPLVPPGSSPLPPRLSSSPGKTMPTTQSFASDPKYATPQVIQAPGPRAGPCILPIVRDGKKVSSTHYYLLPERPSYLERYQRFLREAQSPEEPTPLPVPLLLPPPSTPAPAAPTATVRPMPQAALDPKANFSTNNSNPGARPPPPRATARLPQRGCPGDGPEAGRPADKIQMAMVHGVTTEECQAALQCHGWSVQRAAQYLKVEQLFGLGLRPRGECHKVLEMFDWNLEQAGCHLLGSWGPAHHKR

Consider `COc1ccc(-c2cnccc2-c2cnc(NC(=O)C(C)C)s2)c(C(F)(F)F)c1` [CRT0105446, N-{5-[3-(4-Methoxy-2-trifluoromethyl-phenyl)-pyridin-4-yl]-hiazol-2-yl}-isobutyramide], for which the remaining binding at 10 µM in [1] was found to be 82%; on ACVR1B, 82%; on ACVR2A it was 74%; on CAMKK1, 82%; at DAPK3, 83%; on EPHA1, 100%. For the same compound, the remaining binding at 10 µM at EPHB4 was 93%; at FAK, 100%; at FGFR3(G697C), 93%; on GRK1, 70%; on ICK, 18%; on KIT, 55%. Further, the remaining binding at 10 µM at LATS2 came out at 90%; on MAP3K4 it was 99%; at MLK1 it was 86%; at MRCKB, 93%; at MYLK, 100%; on PKAC-beta it was 100%. Besides, the remaining binding at 10 µM in assay [2] came to 37%; at TAOK3, 96%; on TNK2, 91%; at YANK3 it was 100%.

Regarding `Cc1ccc(-c2cnccc2-c2cnc(Nc3ccc(O)cc3)s2)c(Cl)c1` [CRT0105950, 4-{5-[3-(2-Chloro-4-methyl-phenyl)-pyridin-4-yl]-thiazol-2-ylamino}-phenol], the remaining binding at 10 µM was 72% in assay [1]; 76% at ACVR1B; 45% at ACVR2A; 26% on CAMKK1; 44% on DAPK3; 74% at EPHA1. Besides, the remaining binding at 10 µM is 82% on EPHB4; 33% on FAK; 7.2% on FGFR3(G697C); 59% on GRK1; 19% at ICK; 3.2% at KIT. For the same compound, the remaining binding at 10 µM on LATS2 was 6%; at MAP3K4 it was 100%; on MLK1, 13%; on MRCKB, 78%; on MYLK, 28%; at PKAC-beta it was 44%. The remaining binding at 10 µM turned out to be 0.1% in assay [2], 28% on TAOK3, 25% at TNK2 and 100% on YANK3.

The values are drawn from publication PMC4770715, “LIM kinase inhibitors disrupt mitotic microtubule organization and impair tumor cell proliferation” (Oncotarget, 2015).
